Measurements reported in US9555029B2 (HIKMA PHARMACEUTICALS, priority 2013, dated 2017).
Where two headings read alike, the source gives them in different places.

Experiments:
[1] = Colchicine pharmacokinetics coadministered with voriconazole
[2] = Incidence of adverse effects for colchicine coadministered with voriconazole
Protocol: (§1) Safety was evaluated through assessment of adverse events, standard laboratory evaluations, physical examination (including vital signs) and ECG. Safety was determined by descriptive statistics.

[3] = Protocol: as §1
The inhibitor dosage form was an oral 200 mg tablet of Diflucan® (fluconazole, from Pfizer).
The fluconazole trial differed from the Example 2 protocol as follows.

[4] = cited from earlier work; for Kel / T1/2el: arithmetic mean; for AUCT / Cmax: geometric mean
[5] = for AUCT/∞ / Kel / T1/2el: mean
[6] = for AUCT/∞ / Kel / T1/2el: mean; remark: listed apart in the source
Remark: listed apart in the source
[7] = not given; remark: listed apart in the source
[8] = cited from earlier work; for AUCT / Cmax: geometric mean
[9] = cited from earlier work; for Kel / T1/2el: arithmetic mean
[10] = cited from earlier work; for Kel / T1/2el: arithmetic mean; for AUCT / Cmax: geometric mean; remark: listed apart in the source
[11] = cited from earlier work
[12] = Treatment-1 (day 1): colchicine 0.6 mg alone, fasted, voriconazole study, mean
[13] = Treatment-2 (day 9): colchicine 0.6 mg + voriconazole 200 mg after twice daily days 4-8, fasted, mean
[14] = of 12 subjects, colchicine + voriconazole
[15] = of 12 subjects, voriconazole study
[16] = of 12 subjects, colchicine + fluconazole
[17] = of 12 subjects, fluconazole study
[18] = Treatment-1: colchicine 0.6 mg alone (day 1, fasted), cyclosporine study
[19] = Treatment-2: colchicine 0.6 mg + cyclosporine 100 mg once (day 15)
[20] = Treatment-1 (day 1): colchicine 0.6 mg alone, fasted, cimetidine study
[21] = Treatment-2 (day 9): colchicine 0.6 mg + cimetidine 800 mg after double dose day 4, once daily days 5-8, fasted
[22] = Treatment-1 (day 1): colchicine 0.6 mg alone, fasted, propafenone study
[23] = Treatment-2 (day 9): colchicine 0.6 mg + propafenone 225 mg after twice daily days 4-8, fasted
[24] = coadministration with propafenone vs colchicine alone
[25] = of 12 subjects, cimetidine study
[26] = of 12 subjects, colchicine + cimetidine
[27] = of 12 subjects, colchicine + propafenone
[28] = of 12 subjects, propafenone study
[29] = Treatment-1: colchicine 0.6 mg alone (day 1, fasted), ritonavir study, arithmetic mean
[30] = Treatment-1: colchicine 0.6 mg alone (day 1, fasted), ritonavir study
[31] = Treatment-2: colchicine 0.6 mg (day 19) + ritonavir 100 mg twice daily (days 15-19)
[32] = Treatment-1: colchicine 0.6 mg alone (day 1, fasted), verapamil ER study
[33] = Treatment-1: colchicine 0.6 mg alone (day 1, fasted), verapamil ER study, geometric mean
[34] = Treatment-2: colchicine 0.6 mg (day 19) + verapamil ER 240 mg once daily (days 15-19)
[35] = Treatment-1: colchicine 0.6 mg alone (day 1, fasted), azithromycin study
[36] = Treatment-2: colchicine 0.6 mg (day 19) + azithromycin 500 mg day 15, 250 mg once daily days 16-19
[37] = colchicine coadministered with azithromycin
[38] = colchicine coadministered with clarithromycin
[39] = colchicine coadministered with cyclosporine
[40] = colchicine coadministered with diltiazem ER
[41] = colchicine coadministered with ketoconazole
[42] = colchicine coadministered with ritonavir
[43] = colchicine coadministered with verapamil ER

SMILES: COc1cc2c(c(OC)c1OC)-c1ccc(OC)c(=O)cc1[C@@H](NC(C)=O)CC2 [Colchicine, (S)N-(5,6,7,9-tetrahydro-1,2,3,10-tetramethoxy-9-oxobenzo[alpha]heptalen-7-yl)acetamide]
- AUCT/∞ [1, 12]: 87.75%
- Kel [1, 12]: 0.0240 h⁻¹
- T1/2el [1, 12]: 29.63 h
- AUCT/∞ [1, 13]: 86.14%
- Kel [1, 13]: 0.0227 h⁻¹
- T1/2el [1, 13]: 31.30 h
- Decrease of colchicine Cmax ([1]; coadministration with voriconazole vs colchicine alone): about 20%
- CL/F ([1]; male, human, in vivo, 0.6 mg): 550 mL/min
- Tmax ([1]; male, human, in vivo, 0.6 mg): 1.38 h
- Vd/F ([1]; male, human, in vivo, 0.6 mg): 1350 L
- AUC(0-t) ([1]; male, human, in vivo, 0.6 mg, AUCT GEOMETRIC LSMEANS, Treatment-1: colchicine 0.6 mg alone, voriconazole study): 17.9 ng·h/mL
- AUC(0-t) ([1]; male, human, in vivo, 0.6 mg, AUCT, Treatment-1 (day 1): colchicine 0.6 mg alone, fasted, voriconazole study, mean): 19.6 ng·h/mL
- AUC(0-inf) ([1]; male, human, in vivo, 0.6 mg, AUC∞ GEOMETRIC LSMEANS, Treatment-1: colchicine 0.6 mg alone, voriconazole study): 20.5 ng·h/mL
- AUC(0-inf) ([1]; male, human, in vivo, 0.6 mg, AUC∞, Treatment-1 (day 1): colchicine 0.6 mg alone, fasted, voriconazole study, mean): 22.4 ng·h/mL
- Cmax ([1]; male, human, in vivo, 0.6 mg, Cmax GEOMETRIC LSMEANS, Treatment-1: colchicine 0.6 mg alone, voriconazole study): 2.3 ng/mL
- Cmax ([1]; male, human, in vivo, 0.6 mg, Cmax, Treatment-1 (day 1): colchicine 0.6 mg alone, fasted, voriconazole study, mean): 2.66 ng/mL
- AUC(0-t) ([1]; male, human, in vivo, AUCT GEOMETRIC LSMEANS, Treatment-2: colchicine 0.6 mg + voriconazole): 19.5 ng·h/mL
- AUC(0-t) ([1]; male, human, in vivo, AUCT, Treatment-2 (day 9): colchicine 0.6 mg + voriconazole 200 mg after twice daily days 4-8, fasted, mean): 20.7 ng·h/mL
- AUC(0-inf) ([1]; male, human, in vivo, AUC∞ GEOMETRIC LSMEANS, Treatment-2: colchicine 0.6 mg + voriconazole): 22.7 ng·h/mL
- AUC(0-inf) ([1]; male, human, in vivo, AUC∞, Treatment-2 (day 9): colchicine 0.6 mg + voriconazole 200 mg after twice daily days 4-8, fasted, mean): 24.1 ng·h/mL
- Cmax ([1]; male, human, in vivo, Cmax GEOMETRIC LSMEANS, Treatment-2: colchicine 0.6 mg + voriconazole): 1.83 ng/mL
- Cmax ([1]; male, human, in vivo, Cmax, Treatment-2 (day 9): colchicine 0.6 mg + voriconazole 200 mg after twice daily days 4-8, fasted, mean): 2.06 ng/mL
- Total number of adverse events after Treatment-2 ([2]; colchicine + voriconazole): 2
- Number of subjects experiencing adverse events after Treatment-2 [2, 14]: 1
- Percent of subjects experiencing adverse events after Treatment-2 [2, 14]: 8.3%
- Number of subjects experiencing adverse events after Treatment-1 [2, 15]: 7
- Percent of subjects experiencing adverse events after Treatment-1 [2, 15]: 58.3%
- Number of adverse events requiring medication after Treatment-1 ([2]; voriconazole study): None
- Number of serious adverse events or deaths ([2]; voriconazole study): None
- Total number of adverse events after Treatment-1 ([2]; voriconazole study): 20
- Total number of adverse events after Treatment-2 ([3]; colchicine + fluconazole): 3
- Number of adverse events requiring medication after Treatment-1 ([3]; fluconazole study): None
- Number of serious adverse events or deaths ([3]; fluconazole study): None
- Total number of adverse events after Treatment-1 ([3]; fluconazole study): 7
- Number of subjects experiencing adverse events after Treatment-2 [3, 16]: 3
- Percent of subjects experiencing adverse events after Treatment-2 [3, 16]: 25.0%
- Number of subjects experiencing adverse events after Treatment-1 [3, 17]: 3
- Percent of subjects experiencing adverse events after Treatment-1 [3, 17]: 25.0%
- Kel [4, 18]: 0.147 h⁻¹
- T1/2el [4, 18]: 6.777 h
- CLTOT/F [4, 18]: 48.24 L/h
- AUCT [4, 18]: 12,555 pg · h/mL
- Cmax [4, 18]: 2,720 pg/mL
- Kel [4, 19]: 0.038 h⁻¹
- T1/2el [4, 19]: 20.65 h
- CLTOT/F [4, 19]: 13.42 L/h
- AUCT [4, 19]: 29,830 pg · h/mL
- Cmax [4, 19]: 8,820 pg/mL
- AUCT/∞ [5, 20]: 85.29%
- Kel [5, 20]: 0.0201 h⁻¹
- T1/2el [5, 20]: 35.46 h
- AUCT/∞ [5, 21]: 86.53%
- Kel [5, 21]: 0.0222 h⁻¹
- T1/2el [5, 21]: 31.54 h
- Decrease of colchicine Cmax ([5]; coadministration with cimetidine vs colchicine alone): 33%
- Decrease of colchicine AUC ([5]; coadministration with cimetidine vs colchicine alone, not significant): 15%
- AUCT/∞ [6, 22]: 88.21%
- Kel [6, 22]: 0.0241 h⁻¹
- T1/2el [6, 22]: 29.74 h
- AUCT/∞ [6, 23]: 89.16%
- Kel [6, 23]: 0.0250 h⁻¹
- T1/2el [6, 23]: 28.25 h
- Tmax (median hours) ([6]; Treatment-2 (day 9): colchicine 0.6 mg + propafenone 225 mg after twice daily days 4-8, fasted, median): 1.00 h
- Increase of colchicine AUC [6, 24]: 1%
- Increase of colchicine Cmax [6, 24]: 7%
- Number of adverse events requiring medication after Treatment-1 (cimetidine study): None
- Number of serious adverse events or deaths (cimetidine study): None
- Total number of adverse events after Treatment-1 (cimetidine study): 11
- Total number of adverse events after Treatment-2 (colchicine + cimetidine): 2
- Number of subjects experiencing adverse events after Treatment-1 [25]: 7
- Percent of subjects experiencing adverse events after Treatment-1 [25]: 58.3%
- Number of subjects experiencing adverse events after Treatment-2 [26]: 1
- Percent of subjects experiencing adverse events after Treatment-2 [26]: 8.3%
- Total number of adverse events after Treatment-2 ([7]; colchicine + propafenone): 1
- Number of subjects experiencing adverse events after Treatment-2 [7, 27]: 1
- Percent of subjects experiencing adverse events after Treatment-2 [7, 27]: 8.3%
- Number of subjects experiencing adverse events after Treatment-1 [7, 28]: 9
- Percent of subjects experiencing adverse events after Treatment-1 [7, 28]: 75.0%
- Number of adverse events requiring medication after Treatment-1 ([7]; propafenone study): None
- Number of serious adverse events or deaths ([7]; propafenone study): None
- Total number of adverse events after Treatment-1 ([7]; propafenone study): 19
- Kel [8, 29]: 0.1666 h⁻¹
- T1/2el [8, 29]: 5.15 h
- CLTOT/F [8, 30]: 67.93 L/h
- AUCT [8, 30]: 8,410 pg · h/mL
- Cmax [8, 30]: 1,870 pg/mL
- T1/2el ([8]; Treatment-2: colchicine 0.6 mg (day 19) + ritonavir 100 mg twice daily (days 15-19), arithmetic mean): 17.41 h
- CLTOT/F [8, 31]: 18.59 L/h
- AUCT [8, 31]: 29,050 pg · h/mL
- Cmax [8, 31]: 4,990 pg/mL
- Kel [9, 32]: 0.1409 h⁻¹
- T1/2el [9, 32]: 4.3 h
- CLTOT/F [9, 32]: 43.93 L/h
- AUCT [9, 33]: 13,090 pg · h/mL
- Cmax [9, 33]: 2,970 pg/mL
- Kel [9, 34]: 0.0480 h⁻¹
- T1/2el [9, 34]: 17.17 h
- CLTOT/F [9, 34]: 21.01 L/h
- Cmax ([9]; Treatment-2: colchicine 0.6 mg (day 19) + verapamil ER 240 mg once daily (days 15-19), geometric mean): 3,850 pg/mL
- Kel [10, 35]: 0.147 h⁻¹
- T1/2el [10, 35]: 6.07 h
- CLTOT/F [10, 35]: 50.24 L/h
- AUCT [10, 35]: 11,980 pg · h/mL
- Cmax [10, 35]: 2,740 pg/mL
- Kel [10, 36]: 0.1426 h⁻¹
- T1/2el [10, 36]: 6.71 h
- CLTOT/F [10, 36]: 35.01 L/h
- AUCT [10, 36]: 17,160 pg · h/mL
- Cmax [10, 36]: 3,050 pg/mL
- Number of 24 subjects with adverse events overall [11, 37]: 11
- Percent of 24 subjects with adverse events overall [11, 37]: (45.8) %
- Total number of adverse events [11, 37]: 27
- Number of 24 subjects with adverse events overall [11, 38]: 14
- Percent of 24 subjects with adverse events overall [11, 38]: (58.3) %
- Total number of adverse events [11, 38]: 26
- Number of 24 subjects with adverse events overall [11, 39]: 6
- Percent of 24 subjects with adverse events overall [11, 39]: (25.0%)
- Total number of adverse events [11, 39]: 5
- Number of 24 subjects with adverse events overall [11, 40]: 14
- Percent of 24 subjects with adverse events overall [11, 40]: (58.3) %
- Total number of adverse events [11, 40]: 21
- Number of 24 subjects with adverse events overall [11, 41]: 10
- Percent of 24 subjects with adverse events overall [11, 41]: (41.7) %
- Total number of adverse events [11, 41]: 11
- Number of 24 subjects with adverse events overall [11, 42]: 5
- Percent of 24 subjects with adverse events overall [11, 42]: (20.8) %
- Total number of adverse events [11, 42]: 8
- Number of 24 subjects with adverse events overall [11, 43]: 14
- Percent of 24 subjects with adverse events overall [11, 43]: (58.3) %
- Total number of adverse events [11, 43]: 22
